For this assay, the target named is T1, 15-hydroxyprostaglandin dehydrogenase [NAD(+)] (Homo sapiens, UniProt P15428).
T1 sequence (P15428 whole entry): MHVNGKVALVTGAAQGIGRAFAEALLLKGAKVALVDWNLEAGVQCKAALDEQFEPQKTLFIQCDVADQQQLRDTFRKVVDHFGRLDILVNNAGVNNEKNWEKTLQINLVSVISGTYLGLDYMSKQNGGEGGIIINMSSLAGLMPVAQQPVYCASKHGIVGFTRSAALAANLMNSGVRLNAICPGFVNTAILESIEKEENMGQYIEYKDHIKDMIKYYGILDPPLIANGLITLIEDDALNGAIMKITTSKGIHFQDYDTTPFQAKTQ
Briefly: Inhibitory Activity Assay: To confirm whether the compounds according to the present disclosure have an effect of inhibiting 15-PGDH, the NADH, which appears at the wavelength of 340 nm, of Compounds 1 to 105 purified in (1) nm was measured by using fluorescence spectra photometer. That is, the cells were treated with a solution including 50 mM Tris-HCl (pH 7.5), 0.1 mM DTT, 0.25 mM (NAD+), 10 μg of purified 15-PGDH enzyme, 21 μM PGE2. and various concentrations (0.0001 μM to 64 μM) of the derivative compound according to the present disclosure. In this case, the total volume of the solution was 2 ml. Then, the absorbance of the reaction mixture was recorded at the wavelength of 340 nm. To measure the activity of the derivative compounds according to the present disclosure, which is an inhibitor of 15-PGDH, the average value of NADH absorbance at 340 nm at various concentrations was obtained from a standard curve. The results of the 15-PGDH inhibitory activity of the derivative compounds according to the present disclosure are shown in Tables 1 and 2 below.

The text below walks through data of ChEMBL document CHEMBL5727979, “Thiazolidinedione derivative and use thereof” (2020).

As a reminder, the IC50 is the concentration that inhibits the measured activity by half. `O=C1NC(=O)/C(=C/c2ccc(OC(=O)C3CCC3)cc2)S1`: the IC50 is 431 nM. As for `O=C(CCC1CCCC1)Oc1ccc(/C=C2\SC(=O)NC2=O)c(Cl)c1`, the figure is 50.8 nM.

For the compound `O=C1NC(=O)/C(=C/c2ccc(OC(=O)c3ccccc3)cc2)S1`, the IC50 is 124 nM.
